In assay [1] the test system is dorsal root ganglion explants. The experiment in a line: Axonal Wallerian degeneration assay in mouse DRG explant culture. In kind it is cell-based, C57BL/6 male mice. Particulars: 10 µM test compound, 2 hours pretreatment, axons transected, images at 0 hour and 24 hours. An excerpt:
The experimental method was based on Gerdts J et al. (Gerdts J, Sasaki Y, Vohra B, Marasa J, Milbrandt J. Image-based screening identifies novel roles for IkappaB kinase and glycogen synthase kinase 3 in axonal degeneration. J Biol Chem. 2011 Aug 12;286(32):28011-8).
Dorsal root ganglia were dissected from 2-month-old C57BL/6 male mice and placed in 35 mm culture dishes containing pre-cooled HBSS buffer. Excess tissue from each dorsal root ganglion was removed and cut into 2-3 explants using a scalpel, and the explants were planted in wells of a 96-well plate coated with 100 ng/mL Matrigel (Corning). 100 µL of DRG culture medium (Neurobasal medium (Gibco) containing 2% B-27 (Gibco), 1% GlutaMax (Gibco), and 10 ng/mL NGF (MCE)) was added, then cultured in a 37°C incubator for one week, with medium change on day 4, and experiments were performed on day 8.
0.1 µL of 10 mM test compound was dissolved in 100 µL DRG culture medium to prepare new culture medium containing 10 µM test compound. The culture medium in the 96-well plate was aspirated and new culture medium containing the test compound was added. Then the dorsal root ganglion explants were incubated with the medium in a 37°C incubator for 2 hours for pre-protection. After 2-hour pretreatment, a glass electrode was used to transect axons in the area near the tissue block, and bright-field images of axons in the same area were captured at 0 hour and 24 hours post axonal degeneration using a 20x objective lens of a microscope (Olympus). Axonal integrity was evaluated using an in-house developed script.

Another assay concerns the target T1, SARM1 (Homo sapiens, UniProt Q6SZW1).
T1 construct: inventors produced full-length SARM1 for NAD enzyme activity experiments, and used it for screening; His (C); made in house; host or cells: HEK293 cells, transient transfection; supernatant of digitonin lysate, no further purification described
T1 sequence (Q6SZW1 28-724): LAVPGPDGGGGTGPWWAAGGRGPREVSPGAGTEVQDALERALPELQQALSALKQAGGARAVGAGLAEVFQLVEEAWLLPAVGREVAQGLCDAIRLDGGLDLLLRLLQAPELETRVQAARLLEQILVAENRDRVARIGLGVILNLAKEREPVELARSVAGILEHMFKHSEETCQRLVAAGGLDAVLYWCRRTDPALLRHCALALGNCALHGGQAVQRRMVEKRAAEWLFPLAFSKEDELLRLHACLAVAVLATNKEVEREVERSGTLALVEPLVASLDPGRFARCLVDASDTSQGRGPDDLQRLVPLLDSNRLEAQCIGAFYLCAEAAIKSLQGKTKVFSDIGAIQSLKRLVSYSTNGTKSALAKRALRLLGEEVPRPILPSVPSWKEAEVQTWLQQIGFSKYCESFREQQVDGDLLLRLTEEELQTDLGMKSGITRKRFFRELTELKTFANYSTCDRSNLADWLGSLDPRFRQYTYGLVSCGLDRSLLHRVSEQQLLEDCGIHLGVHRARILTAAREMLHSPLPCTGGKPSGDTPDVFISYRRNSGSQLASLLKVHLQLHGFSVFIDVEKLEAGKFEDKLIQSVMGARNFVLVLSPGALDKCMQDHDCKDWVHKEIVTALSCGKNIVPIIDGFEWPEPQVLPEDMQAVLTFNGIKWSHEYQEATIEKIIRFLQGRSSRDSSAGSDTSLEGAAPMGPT
The experiment in a line: In vitro biochemical assay for inhibiting SARM1 enzyme activity (PC6 fluorescence, NADase). Conditions: full-length SARM1 from transfected HEK293 cells, 50 µM NAD, 50 µM PC6, 50 µM NMN activator, room temperature, 30 minutes. On the procedure: The gene sequence of SARM1 protein was amplified using PCR, and the PCR amplification product was constructed into pcDNA3.1-HIS-C plasmid. The above construction was completed by YouBio(Hunan, China). HEK293 cells were cultured in 10 cm dishes using DMEM, and the cells were transfected with 15 μg pcDNA3.1-SARM[…]-C expression plasmid on the following day. Cells were collected 48 hours after transfection, and SARM1 protein expressed in the cells was obtained by digitonin lysis for in vitro activity assay experiments. The specific procedure was as follows: Cells were digested with trypsin-EDTA, then centrifuged at 1000 rpm for 5 minutes, washed once with PBS, and then resuspended in PBS containing 100 μM digitonin, with 0.6 mL PBS for the cells in per 10 cm dish, and lysed for 5 minutes. […] Then the supernatant containing SARM1 protein was collected by centrifugation at 5000 rpm for 10 minutes. […] A group without inhibitor was used as control group. All mixtures were incubated at room temperature for 10 minutes. Then, 50 μM NAD and 50 μM PC6 as substrates and 50 μM NMN as an activator were added to the SARM1 protein incubated with the inhibitor, and the reaction was carried out at room temperature for 30 minutes. The concentrations of each component were the final concentrations in the reaction system. […] Finally, the reaction rate was used to represent the protein activity and calculate the half-maximal inhibitory concentration.

Read-outs that look alike come from different tables or passages of the source. Where only a bound is given, the exact number is not on record here.

For the molecule `O=C1C(Cc2ccc3ccsc3c2)CCN1c1ccc2c(c1)COc1cnccc1-2` (stereo not shown) [Compound 58], the “Degree of Protection Against Axonal Wallerian Degeneration” value (from here on “Degree”) in assay [1] is recorded as “B (partial protection (B): 20% to 50%)”. In addition, on SARM1 (read-out: IC50), the IC50 – broadly, the concentration that gives 50% inhibition – was 1000 to 10000 nM.
On the same counts, the results for `O=C(NCc1cc(F)c(F)c(F)c1)Nc1ccc2c(c1)COc1cnccc1-2` [Compound 67] are “A (substantial protection (A) >50%)” and less than 100 nM.
As for `CN1Cc2cnccc2-c2ccc(N3CCC(Cc4ccc(F)cc4)C3=O)cc2C1` (stereo not shown) [Compound 133], the “Degree” value in assay [1] is “B (partial protection (B): 20% to 50%)”. For the same molecule, the IC50 at SARM1 (read-out: IC50) was in the range of 100 to 1000 nM.
On the same counts, the results for `O=C(CCc1ccc(Cl)cc1F)Nc1ccc2c(c1)COc1cnccc1-2` [Compound 40] are “A (substantial protection (A) >50%)” and 1000 to 10000 nM.
On the same counts, the results for `O=C(CCc1cccc(F)c1)Nc1ccc2c(c1)COc1cnccc1-2` [Compound 34] are “A (substantial protection (A) >50%)” and less than 100 nM.
On the same counts, the results for `O=C(CCc1ccc(F)c(F)c1)Nc1cnc2c(c1)COc1cnccc1-2` [Compound 87] are “A (substantial protection (A) >50%)” and less than 100 nM.
As for `O=C(CCc1cccs1)Nc1ccc2c(c1)COc1cnccc1-2` [Compound 138], the “Degree” value in assay [1] is “A (substantial protection (A) >50%)”. The IC50 on SARM1 (read-out: IC50) is less than 100 nM.
On the same counts, the results for `O=C1C(Cc2cc3ccccc3o2)CCN1c1ccc2c(c1)COc1cnccc1-2` (stereo not shown) [Compound 59] are “B (partial protection (B): 20% to 50%)” and 1000 to 10000 nM.
For `O=C(CCc1c(F)c(F)c(F)c(F)c1F)Nc1ccc2c(c1)COc1cnccc1-2` [Compound 80], the “Degree” value in assay [1] is listed as “A (substantial protection (A) >50%)”. For the same molecule, the 50% inhibitory concentration (IC50) on SARM1 (read-out: IC50) was less than 100 nM.
`O=C(NCc1ccc(Cl)c(Cl)c1)Nc1ccc2c(c1)COc1cnccc1-2` [Compound 65]: the “Degree” value in assay [1] was “B (partial protection (B): 20% to 50%)”. Also, at SARM1 (read-out: IC50), the IC50 lay in the range of 1000 to 10000 nM.
In the same order, the values of `Cc1ccc(CNC(=O)Nc2ccc3c(c2)COc2cnccc2-3)cc1` [Compound 72] are “B (partial protection (B): 20% to 50%)” and 100 to 1000 nM.
In the same order, the values of `O=C1C(Cc2ccc(Cl)nc2)CCN1c1ccc2c(c1)COc1cnccc1-2` (stereo not shown) [Compound 17] are “B (partial protection (B): 20% to 50%)” and 100 to 1000 nM.
`O=C(NCc1cccc(F)c1)Nc1ccc2c(c1)COc1cnccc1-2` [Compound 47]: the “Degree” value in assay [1] was “A (substantial protection (A) >50%)”. At SARM1 (read-out: IC50), the IC50 is 100 to 1000 nM.
On the same counts, the results for `[2H]C1(Cc2ccc(F)cc2)CCN(c2ccc3c(c2)COc2cnccc2-3)C1=O` (stereo not shown) [Compound 139, 3-(4-fluorobenzyl)-1-(6H-isochromeno[3,4-c]pyridin-8-yl)pyrrolidin-2-one-3d] are “A (substantial protection (A) >50%)” and less than 100 nM.
On the same counts, the results for `O=C1C(Cc2ccc(Cl)o2)CCN1c1ccc2c(c1)COc1cnccc1-2` (stereo not shown) [Compound 12] are “B (partial protection (B): 20% to 50%)” and 100 to 1000 nM.
In the same order, the values of `O=C(CNc1ccc(F)cc1)Nc1ccc2c(c1)COc1cnccc1-2` [Compound 75] are “B (partial protection (B): 20% to 50%)” and less than 100 nM.
In the case of `O=C1C(Cc2ccc(F)cc2)CN1c1ccc2c(c1)COc1cnccc1-2` (stereo not shown) [Compound 142, 3-(4-fluorobenzyl)-1-(6H-isochromeno[3,4-c]pyridin-8-yl)azetidin-2-one], the “Degree” value in assay [1] was “A (substantial protection (A) >50%)”. For the same molecule, the IC50 at SARM1 (read-out: IC50) is 100 to 1000 nM.
On the same counts, the results for `O=C(CCc1ccccc1)Nc1cnc2c(c1)COc1cnccc1-2` [Compound 95] are “B (partial protection (B): 20% to 50%)” and less than 100 nM.
Take `O=C(NCc1ccc(F)c(F)c1)Nc1ccc2c(c1)COc1cnccc1-2` [Compound 46]: the “Degree” value in assay [1] is “A (substantial protection (A) >50%)”. For the same molecule, the 50% inhibitory concentration (IC50) on SARM1 (read-out: IC50) fell in the range of 100 to 1000 nM.
On to `O=C1C(Cc2ccc(F)cc2F)CCN1c1ccc2c(c1)COc1cnccc1-2` (stereo not shown) [Compound 11], for which the “Degree” value in assay [1] is “A (substantial protection (A) >50%)”. In addition, at SARM1 (read-out: IC50), the IC50 fell in the range of 1000 to 10000 nM.
In the same order, the values of `O=C(CCc1cc(F)cc(F)c1)Nc1cnc2c(c1)COc1cnccc1-2` [Compound 96] are “A (substantial protection (A) >50%)” and less than 100 nM.
In the same order, the values of `O=C(CCc1ccc(C(F)(F)F)cc1)Nc1ccc2c(c1)COc1cnccc1-2` [Compound 32] are “B (partial protection (B): 20% to 50%)” and 100 to 1000 nM.
On the same counts, the results for `O=C(CC1CCc2ccccc21)Nc1ccc2c(c1)COc1cnccc1-2` (stereo not shown) [Compound 76] are “A (substantial protection (A) >50%)” and 100 to 1000 nM.
Consider `Fc1ccc(CNC(=S)Nc2ccc3c(c2)COc2cnccc2-3)cc1` [Compound 77, 1-(4-fluorobenzyl)-3-(6H-isochromeno[3,4-c]pyridin-8-yl)thiourea], for which the “Degree” value in assay [1] is reported as “B (partial protection (B): 20% to 50%)”. Moreover, the IC50 against SARM1 is less than 100 nM.
With `O=C(CCc1ccccc1F)Nc1ccc2c(c1)COc1cnccc1-2` [Compound 136], in assay [1], the “Degree” value is “A (substantial protection (A) >50%)”. Also, the IC50 on SARM1 (read-out: IC50) was less than 100 nM.
Take `O=C(NCc1ccc(F)cc1)Nc1ccc2c(c1)COc1cnccc1-2` [Compound 45, 1-(4-fluorobenzyl)-3-(6H-isochromeno[3,4-c]pyridin-8-yl)urea]: in assay [1], the “Degree” value is “A (substantial protection (A) >50%)”. In addition, the IC50 on SARM1 (read-out: IC50) was less than 100 nM.
In the same order, the values of `O=C1C(Cc2ccc(Cl)s2)CCN1c1ccc2c(c1)COc1cnccc1-2` (stereo not shown) [Compound 7] are “A (substantial protection (A) >50%)” and 1000 to 10000 nM.
In the same order, the values of `O=C(CCc1ccc(Cl)cc1)Nc1cnc2c(c1)COc1cnccc1-2` [Compound 84] are “B (partial protection (B): 20% to 50%)” and less than 100 nM.
Regarding `O=C1C(Cc2ccncc2)CCN1c1ccc2c(c1)COc1cnccc1-2` (stereo not shown) [Compound 62], in assay [1], the “Degree” value is recorded as “A (substantial protection (A) >50%)”. Also, the IC50 on SARM1 (read-out: IC50) fell in the range of 100 to 1000 nM.

Values taken from patent EP4782449A1, “TRICYCLIC PYRIDINE COMPOUND ACTING AS SARM1 ENZYME ACTIVITY INHIBITOR, AND USE THEREOF” (Artivila (ShenZhen) Innovation Center, Ltd., priority 2023, dated 2025).
